Data from publication PMC4527730, “A Pan-GTPase Inhibitor as a Molecular Probe” (PLoS ONE, 2015).
Converted amounts (≈) assume the structure as drawn. Read-outs that look alike come from different tables or passages of the source.

Key:
[1] = tested on: GTPases (H-Ras, H-Ras G12V, Cdc42, Cdc42 Q61L, Rac1, Rac1 Q61L, RhoA, Rab7); assay: Multiplex dose-response assay, statements across the GTPase panel; conditions: for inhibitory activity on BODIPY-FL GTP binding across all GTPases tested (in words): SAR versus compound 1
Method: (§1) Briefly, individual GST-GTPases were separately attached to glutathione microsphere beads that were labeled with varying intensity of red fluorescent dye, and subsequently combined. The buffer contains 30 mM HEPES (pH 7.2), 150 mM KCl, 20 mM NaCl, 0.1% BSA, 1 mM DTT, 1 mM EDTA and 0.1% NP-40. For Rho A and Rac1, 1 mM EDTA was replaced with 1 mM MgCl2 to stabilize the protein. […] To study whether the compounds are slow binders, BODIPY^- FL GTP was added either immediately or 2 h after compound addition. […] The curves were fitted to the sigmoidal dose-response equation using GraphPad Prism. Percent response was calculated as the ratio of (sample MCF–negative control MCF) / (positive control MCF–negative control MCF).

Rab7 = Rab7 (Canis lupus familiaris, UniProt P18067); assay: Multiplex bead-based flow cytometry dose-response of fluorescent guanine nucleotide binding; conditions: read-out: EC50 Rab7; BODIPY-FL GTP binding; 2 h at 4°C
Sequence of Rab7 (P18067 2-207 limits assumed): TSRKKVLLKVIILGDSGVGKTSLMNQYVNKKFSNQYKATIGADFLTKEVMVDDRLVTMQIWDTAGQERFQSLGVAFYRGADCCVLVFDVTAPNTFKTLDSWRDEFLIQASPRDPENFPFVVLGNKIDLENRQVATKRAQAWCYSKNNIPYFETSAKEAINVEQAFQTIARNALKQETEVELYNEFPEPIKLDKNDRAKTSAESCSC
Method: (§2) Briefly, individual GST-GTPases were separately attached to glutathione microsphere beads that were labeled with varying intensity of red fluorescent dye, and subsequently combined. The buffer contains 30 mM HEPES (pH 7.2), 150 mM KCl, 20 mM NaCl, 0.1% BSA, 1 mM DTT, 1 mM EDTA and 0.1% NP-40. […] To study whether the compounds are slow binders, BODIPY^- FL GTP was added either immediately or 2 h after compound addition. […] The curves were fitted to the sigmoidal dose-response equation using GraphPad Prism. Percent response was calculated as the ratio of (sample MCF–negative control MCF) / (positive control MCF–negative control MCF).

H-Ras = H-Ras (Homo sapiens, UniProt P01112); assay: as above; conditions: read-out: EC50 H-Ras; BODIPY-FL GTP binding; 2 h at 4°C
Sequence of H-Ras (P01112 whole entry): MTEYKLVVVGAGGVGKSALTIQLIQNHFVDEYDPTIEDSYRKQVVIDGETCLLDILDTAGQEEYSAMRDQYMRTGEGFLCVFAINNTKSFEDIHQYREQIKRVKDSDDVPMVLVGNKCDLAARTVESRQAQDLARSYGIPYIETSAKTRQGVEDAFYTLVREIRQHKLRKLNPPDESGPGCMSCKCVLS
Method: as §2

H-Ras G12V = H-Ras G12V (Homo sapiens, UniProt P01112, G12V); assay: as above; conditions: read-out: EC50 H-Ras G12V; BODIPY-FL GTP binding; 2 h at 4°C
Sequence of H-Ras G12V (P01112 whole entry G12V): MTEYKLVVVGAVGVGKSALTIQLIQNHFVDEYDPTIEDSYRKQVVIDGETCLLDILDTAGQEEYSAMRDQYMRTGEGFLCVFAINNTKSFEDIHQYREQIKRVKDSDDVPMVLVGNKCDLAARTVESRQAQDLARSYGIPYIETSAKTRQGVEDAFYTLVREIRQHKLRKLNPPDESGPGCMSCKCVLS
Method: as §2

Cdc42 = Cdc42 (Homo sapiens, UniProt P60953); assay: as above; conditions: read-out: EC50 Cdc42; BODIPY-FL GTP binding; 2 h at 4°C
Sequence of Cdc42 (P60953 whole entry): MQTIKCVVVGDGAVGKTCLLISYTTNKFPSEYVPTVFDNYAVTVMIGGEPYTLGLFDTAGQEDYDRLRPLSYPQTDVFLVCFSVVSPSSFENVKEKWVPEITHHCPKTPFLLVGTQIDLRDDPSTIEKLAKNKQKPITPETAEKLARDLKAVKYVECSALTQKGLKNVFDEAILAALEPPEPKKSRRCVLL
Method: as §2

Cdc42 Q61L = Cdc42 Q61L (Homo sapiens, UniProt P60953, Q61L); assay: as above; conditions: read-out: EC50 Cdc42 Q61L; BODIPY-FL GTP binding; 2 h at 4°C
Sequence of Cdc42 Q61L (P60953 whole entry Q61L): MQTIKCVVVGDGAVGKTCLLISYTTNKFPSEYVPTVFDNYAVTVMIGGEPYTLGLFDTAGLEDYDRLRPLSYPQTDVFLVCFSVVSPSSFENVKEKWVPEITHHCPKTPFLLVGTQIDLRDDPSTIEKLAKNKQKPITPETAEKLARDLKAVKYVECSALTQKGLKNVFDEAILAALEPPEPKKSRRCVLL
Method: as §2

RhoA = RhoA (Homo sapiens, UniProt P61586); assay: as above; conditions: read-out: EC50 RhoA; BODIPY-FL GTP binding; 2 h at 4°C; 1 mM MgCl2
Sequence of RhoA (P61586 whole entry): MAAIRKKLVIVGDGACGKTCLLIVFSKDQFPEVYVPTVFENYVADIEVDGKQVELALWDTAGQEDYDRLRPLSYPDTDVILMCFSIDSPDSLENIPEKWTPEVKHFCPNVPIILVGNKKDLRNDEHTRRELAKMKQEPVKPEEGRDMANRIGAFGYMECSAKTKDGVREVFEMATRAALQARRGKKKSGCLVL
Method: as §1

Rac1 = Rac1 (Homo sapiens, UniProt P63000); assay: as above; conditions: read-out: EC50 Rac1; BODIPY-FL GTP binding; 2 h at 4°C; 1 mM MgCl2
Rac1 Q61L = Rac1 Q61L (Homo sapiens, UniProt P63000, Q61L); assay: as above; conditions: read-out: EC50 Rac1 Q61L; BODIPY-FL GTP binding; 2 h at 4°C
[2] = tested on: integrin VLA-4 on U937 FPRΔST cells; parameters: method as in PMID 23382385; conditions: cited from earlier work
[3] = Solubility in PBS and assay media; assay type: physicochemical
Method: page 7: conclusion, the available data support the idea that compound CID1067700 has non-classical competitive character. […] Solubility was measured in phosphate buffered saline (PBS) at room temperature (23 °C). PBS by definition is 137 mM NaCl, 2.7 mM KCl, 10 mM sodium phosphate dibasic, 2 mM potassium phosphate [monobasic and a pH of 7.4. Detection was based on UV absorbance. […] Solubility was also assessed in the each of the four media used in the individual assays. […] Table 1S. […] Stability, depicted as closed circles in the graph, was assessed at room temperature (23 °C) in PBS (no antioxidants or other protectants and DMSO concentration below 0.1%). Stability data is depicted in Fig. S8 showing the loss of compound with time over a 48 h period with a minimum of 6 time points and providing the percent remaining compound at end of the 48 h period. Under these conditions, 77% of 1 remains after 48 hours. The degradation has not been further characterized.

[4] = tested on: integrin VLA-4 on U937 FPRΔST cells; assay: Integrin activation assay (LDV-FITC binding); assay type: cell-based; conditions: LDV-FITC 4 nM, fMLFF 100 nM
Method: The procedure followed the protocols described previously. U937 FPRΔST cells (0.4~0.8 x 10^6 cells/mL) were continuously stirred with a magnetic stir bar at 500 rpm in a test tube. The fluorescence was recorded on a FACScan flow cytometer. The baseline fluorescence of the cells was established for 30 s. Then LDV-FITC at 4 nM was added. After the fluorescence stabilized at ~120 s, the chemotactic ligand fMLFF at 100 nM was added for stimulation. […] All the concentrations given were the final concentrations. The percent inhibition was calculated according to Equation 1 (Supporting Information).

[5] = 30mM HEPES, pH 7.5, 100mM KCl, 20mM NaCl, 0.01% (v/v) NP-40
[6] = 30mM HEPES, pH 7.5, 100mM KCl, 20mM NaCl, 0.01% (v/v) NP-40, read-out: Solubility, Dose Response-buffer
[7] = DMEM/F-12, read-out: Solubility, EGFR degradation assay medium
[8] = RPMI 1640 + 10% HI-FBS, read-out: Solubility, LDV-FITC assay buffer

With `CC1(C)Cc2c(sc(NC(=O)NC(=O)c3ccccc3)c2C(=O)O)CO1` [Compound 6] the “loss in potency across all the GTPases” value ([1]; versus compound 1) was “more than 2 fold”, the EC50 (Rab7) was 0.31 ± 0.09 µM and the EC50 (H-Ras) was 0.44 ± 0.41 µM. It also gave an EC50 (H-Ras G12V) of 0.49 ± 0.48 µM, an EC50 (Cdc42) of 17 µM and an EC50 (Cdc42 Q61L) of 0.47 µM. For the same molecule, the EC50 (RhoA) was 0.33 ± 0.03 µM, the EC50 (Rac1) was 0.35 ± 0.05 µM and the EC50 (Rac1 Q61L) was 0.4 ± 0.02 µM.

For `COc1ccc(C2CC(c3ccccc3)=NN2c2ccc(S(N)(=O)=O)cc2)cc1` (stereo not shown) [CID2950007], the integrin activation [2] is listed as “decrease the integrin activation in a dose-dependent fashion”.

For `CC1(C)Cc2c(sc(NC(=S)Nc3ccccc3)c2C(=O)O)CO1` [Compound 5], the “inhibitory activity on BODIPY-FL GTP binding across all GTPases tested (in words)” value (“inhibitory activity” for short) [1] was “inactive”.

In the case of `CC1(C)Cc2c(sc(NC(=S)NC(=O)c3ccccc3Br)c2C(=O)O)CO1` [Compound 10], the “Solubility, Dose Response-buffer” value [3, 5] is reported as greater than 93 µg/mL, the solubility [3, 6] is reported as greater than 198 µM and the “Solubility, EGFR degradation assay medium” value ([3]; DMEM/F-12) is reported as greater than 93 µg/mL. The solubility [3, 7] was greater than 198 µM, the “Solubility, LDV-FITC assay buffer” value ([3]; RPMI 1640 + 10% HI-FBS) was greater than 93 µg/mL and the solubility [3, 8] was greater than 198 µM. It also gave an EC50 (Rab7) of 0.43 ± 0.68 µM, an EC50 (H-Ras) of 0.62 ± 1 µM and an EC50 (H-Ras G12V) of 0.43 ± 0.68 µM. It also gave an EC50 (Cdc42) of 46.8 ± 66 µM, an EC50 (Cdc42 Q61L) of 14.8 ± 20.8 µM and an EC50 (RhoA) of 0.48 ± 0.74 µM. The EC50 (Rac1) was 0.6 ± 0.8 µM and the EC50 (Rac1 Q61L) was 0.42 ± 0.65 µM.

With `O=C(NC(=S)Nc1sc2c(c1C(=O)O)CCOC2)c1ccccc1` [Compound 3] the “integrin VLA-4 activation (LDV-FITC binding after fMLFF)” value [4] was “dose-dependently blocked integrin activation”, the “inhibitory activity” value [1] was “did not cause a significant change in potency” and the EC50 (H-Ras) was 0.17 ± 0.094 µM. It also gave an EC50 (H-Ras G12V) of 0.12 ± 0.12 µM, an EC50 (Cdc42) of 0.11 ± 0.064 µM and an EC50 (Cdc42 Q61L) of 0.13 ± 0.078 µM. For the same molecule, the EC50 (RhoA) was 0.23 ± 0.21 µM, the EC50 (Rac1) was 0.18 ± 0.13 µM and the EC50 (Rac1 Q61L) was 0.23 ± 0.22 µM.

In the case of `CC1(C)Cc2c(sc(NC(=S)NC(=O)c3ccc(F)cc3)c2C(=O)O)CO1` [Compound 9], the “Solubility, Dose Response-buffer” value [3, 5] is reported as greater than 69.1 µg/mL, the “Solubility, EGFR degradation assay medium” value ([3]; DMEM/F-12) is reported as 67.6 µg/mL (≈ 165 µM) and the solubility [3, 7] is reported as 165.5 µM (≈ 67.6 µg/mL). For the same molecule, the “Solubility, LDV-FITC assay buffer” value ([3]; RPMI 1640 + 10% HI-FBS) was 115.3 µg/mL, the solubility [3, 8] was 282.3 µM and the EC50 (Rab7) was 0.41 ± 0.19 µM. For the same molecule, the EC50 (H-Ras) was 0.33 ± 0.22 µM, the EC50 (H-Ras G12V) was 0.091 µM and the EC50 (Cdc42) was 1 ± 1.2 µM. It also gave an EC50 (Cdc42 Q61L) of 0.88 ± 0.47 µM, an EC50 (RhoA) of 0.11 µM and an EC50 (Rac1) of 0.15 µM. It also gave an EC50 (Rac1 Q61L) of 0.13 µM.

For `CC1(C)Cc2c(sc(NC(=O)Cc3ccccc3)c2C(=O)O)CO1` [Compound 4], the “inhibitory activity” value [1] was “inactive”, the EC50 (Rab7) was greater than 1000 µM and the EC50 (H-Ras) was greater than 1000 µM. The EC50 (H-Ras G12V) was greater than 1000 µM, the EC50 (Cdc42) was greater than 1000 µM and the EC50 (Cdc42 Q61L) was greater than 1000 µM.

In the case of `COc1cccc(C(=O)NC(=S)Nc2sc3c(c2C(=O)O)CC(C)(C)OC3)c1` [Compound 7], the “Solubility, Dose Response-buffer” value [3, 5] is reported as greater than 29.7 µg/mL, the solubility [3, 6] is reported as greater than 70.6 µM and the “Solubility, EGFR degradation assay medium” value ([3]; DMEM/F-12) is reported as 54.5 µg/mL (≈ 130 µM). The solubility [3, 7] was 129.6 µM (≈ 54.5 µg/mL), the “Solubility, LDV-FITC assay buffer” value ([3]; RPMI 1640 + 10% HI-FBS) was greater than 83 µg/mL and the solubility [3, 8] was greater than 197.4 µM. It also gave an EC50 (Rab7) of 0.15 ± 0.13 µM, an EC50 (H-Ras) of 0.13 ± 0.13 µM and an EC50 (H-Ras G12V) of 0.12 ± 0.12 µM. For the same molecule, the EC50 (Cdc42) was 0.58 ± 0.83 µM, the EC50 (Cdc42 Q61L) was 0.5 ± 0.71 µM and the EC50 (RhoA) was 0.2 ± 0.13 µM. It also gave an EC50 (Rac1) of 0.19 ± 0.06 µM and an EC50 (Rac1 Q61L) of 0.22 ± 0.14 µM.

In the case of `COC(=O)c1c(NC(=S)NC(=O)c2ccccc2)sc2c1CC(C)(C)OC2` [Compound 2], the “inhibitory activity” value [1] is reported as “loss of activity”, the EC50 (Rab7) is reported as greater than 1000 µM and the EC50 (H-Ras) is reported as greater than 1000 µM. The EC50 (H-Ras G12V) was greater than 1000 µM, the EC50 (Cdc42) was greater than 1000 µM and the EC50 (Cdc42 Q61L) was greater than 1000 µM.
